The values that follow are results of earlier work, collected in patent publication US7700579B2, “Process for the preparation of piroxicam: b-cyclodextrin inclusion compounds” (Chiesi Farmaceutici S.p.A., priority 2002, dated 2010).

For this data set the following is noted: pH 5, 37° C.

Take `CN1C(C(=O)Nc2ccccn2)=C(O)c2ccccc2S1(=O)=O` [Piroxicam]: the solubility in water is 0.003%.
